In paper PMC10539501 (Nature Communications, 2023):
Values belong to the molecule of their own block, whether it stands above or below them. Starred links: 1 amine or outer side, 2 acyl side, 3 side chain; linkers in the order of their positions; H or OH if unused. Non-standard residues stand in square brackets, D forms with d. Residues, ends and D or L forms follow the SMILES beside them. X5 = CC(C)C[C@H](NC(=S)[C@H](CC(C)C)N[*:1])C(=O)[*:2]; NMeY = CN[C@@H](Cc1ccc(O)cc1)C(=O)O; NMeL = CN[C@@H](CC(C)C)C(=O)O; dNMeL = CN[C@H](CC(C)C)C(=O)O

How the values were obtained:
physchem = settings: pH 7.4
in vitro [1] = settings: both, human, plasma
in vitro [2] = settings: pig, simulated intestinal fluid
Experimental: We next assessed the stability of the macrocyclic peptides in Simulated Intestinal Fluid (SIF)[42], comprising of pancreatin, which is a mixture of several proteases produced by the exocrine cells of the porcine pancreas.
(§1) A stability assessment of the peptides was done in simulated gastric (SGF) and intestinal (SIF) fluids and human liver microsomes. The degradation kinetics of the aliquoted samples at desired time points were analyzed through RP-HPLC.

in vitro [3] = settings: human, microsomes
Experimental: as §1

in vitro [4] = settings: both, human, plasma; remark: listed apart in the source
Experimental: Blood was freshly drawn from three healthy adults, two male and one person of 26–28 year old. […] The plasma was separated by centrifugation. […] For checking metabolic stability, the required volume of plasma was pre-incubated at 37 °C prior to the experiment for 2 min, followed by spiking with the peptides. At different time points, plasma was aliquoted. The supernatant was separated and used for RP-HPLC quantification. Rapid Equilibrium Dialysis (RED) assay was performed to assess the plasma protein binding of the peptides following the supplier’s protocol.

pepsin = pepsin (Sus scrofa, UniProt P00791); assay: in vitro; settings: simulated gastric fluid, pH 1.2
Chain of pepsin (P00791 60-385): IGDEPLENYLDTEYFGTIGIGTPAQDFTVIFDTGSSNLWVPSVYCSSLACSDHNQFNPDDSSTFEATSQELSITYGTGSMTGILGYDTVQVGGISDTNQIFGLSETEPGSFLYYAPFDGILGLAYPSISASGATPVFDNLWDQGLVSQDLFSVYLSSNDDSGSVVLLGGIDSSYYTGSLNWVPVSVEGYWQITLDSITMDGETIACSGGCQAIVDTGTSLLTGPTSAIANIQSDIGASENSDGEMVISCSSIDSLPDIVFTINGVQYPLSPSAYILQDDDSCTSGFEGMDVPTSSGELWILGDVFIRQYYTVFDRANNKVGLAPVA
Experimental: as §1

[5] = PAMPA passive permeability; type: in vitro ADME;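 note: passive permeability across an artificial membrane in 96-well pre-coated PAMPA plates, which lack transporters and efflux systems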
Experimental: Encouraged by this, the passive permeability of the analogs was evaluated using an artificial membrane (PAMPA), which measures permeability of compounds in the absence of transporters and efflux systems[32].
96-well BD Corning® pre-coated PAMPA plates were used following the supplier’s protocol, details in Supplementary Information.

[6] = type: physicochemical
[7] = type: physicochemical; remark: listed apart in the source
Text: Since reduced solvation of S also contributes to the lipophilicity of the thioamidated peptides, we sought to estimate the global desolvation of the macrocyclic peptides, which is affected by solvation of both N(H) and C(S). […] Thus, we evaluated the desolvation potential of the cyclic peptides by determining the distribution coefficients in heptane-ethylene glycol (logDh/e), a solvent system that provides an experimental estimate of desolvation or hydrogen bond potential[38].

Experimental for human liver microsomes: as §1

Half lives (human liver microsomes): 19.0
logD (physchem): 1.42
fraction unbound (in vitro [1]): 0.31
half-life (in vitro [2]): 1.6 h
remaining at 10 min (in vitro [2]): 71.7%
remaining at 0.5 h (in vitro [2]): 53.6%
remaining at 1 h (in vitro [2]): 47.1%
remaining at 2 h (in vitro [2]): 39%
remaining at 4 h (in vitro [2]): 32.1%
remaining at 8 h (in vitro [2]): 26.6%
remaining at 12 h (in vitro [2]): 16.6%
remaining at 24 h (in vitro [2]): 10.3%
microsomal CLint (in vitro [3]): 73 µL/min/mg
remaining at 5 min (in vitro [3]): 85%
remaining at 10 min (in vitro [3]): 65%
remaining at 20 min (in vitro [3]): 49%
remaining at 0.5 h (in vitro [3]): 34%
remaining at 0.75 h (in vitro [3]): 28%
remaining at 1 h (in vitro [3]): 15%
half-life (in vitro [4]): 23 h
remaining at 1 h (in vitro [4]): 91%
remaining at 3 h (in vitro [4]): 85%
remaining at 5 h (in vitro [4]): 80%
remaining at 7 h (in vitro [4]): 76%
remaining at 9 h (in vitro [4]): 74%
remaining at 12 h (in vitro [4]): 59%
remaining at 24 h (in vitro [4]): 47%
remaining at 36 h (in vitro [4]): 33%
remaining at 48 h (in vitro [4]): 25%
remaining at 60 h (in vitro [4]): 15%
remaining at 72 h (in vitro [4]): 7%
half-life (pepsin): 0.283 h
remaining at 5 min (pepsin): 72%
remaining at 10 min (pepsin): 57%
remaining at 20 min (pepsin): 47%
remaining at 0.5 h (pepsin): 38%
remaining at 1 h (pepsin): 33%
remaining at 2 h (pepsin): 27%
remaining at 4 h (pepsin): 23%
remaining at 8 h (pepsin): 17%
remaining at 12 h (pepsin): 10%
remaining at 24 h (pepsin): 5%
Pe Avg [5]: 4.3 ×10⁻⁶ cm/s
Pe set1 [5]: 4.84 ×10⁻⁶ cm/s
Pe set2 [5]: 3.05 ×10⁻⁶ cm/s
Pe set3 [5]: 5.14 ×10⁻⁶ cm/s
Papp ([5]; Pe Avg): 4.3 ×10⁻⁶ cm/s
% solubility [6]: 26%
logD heptane ethylene glycol [7]: 0.62
Structure (SMILES): CC(C)C[C@@H]1NC(=O)[C@H](Cc2ccc(O)cc2)NC(=O)[C@H]2CCCN2C(=O)[C@H](CC(C)C)NC(=S)[C@H](CC(C)C)NC(=O)[C@@H](CC(C)C)NC1=O [10b] (cyclo(L[dL][X5][dP]Y))

Half lives (human liver microsomes): 16.8
logD (physchem): 1.01
fraction unbound (in vitro [1]): 0.35
half-life (in vitro [2]): 0.333 h
remaining at 10 min (in vitro [2]): 67%
remaining at 0.5 h (in vitro [2]): 41%
remaining at 1 h (in vitro [2]): 22%
remaining at 2 h (in vitro [2]): 10%
remaining at 4 h (in vitro [2]): 0%
remaining at 8 h (in vitro [2]): 0%
remaining at 12 h (in vitro [2]): 0%
microsomal CLint (in vitro [3]): 83 µL/min/mg
remaining at 2 min (in vitro [3]): 89%
remaining at 10 min (in vitro [3]): 67%
remaining at 20 min (in vitro [3]): 41%
remaining at 0.5 h (in vitro [3]): 25%
remaining at 0.75 h (in vitro [3]): 16%
remaining at 1 h (in vitro [3]): 8%
half-life (in vitro [4]): 15 h
remaining at 2 h (in vitro [4]): 92%
remaining at 4 h (in vitro [4]): 83%
remaining at 8 h (in vitro [4]): 69%
remaining at 16 h (in vitro [4]): 51%
remaining at 24 h (in vitro [4]): 28%
remaining at 48 h (in vitro [4]): 22%
remaining at 72 h (in vitro [4]): 13%
half-life (pepsin): 0.325 h
remaining at 2 min (pepsin): 85%
remaining at 10 min (pepsin): 65%
remaining at 20 min (pepsin): 45%
remaining at 0.5 h (pepsin): 38%
remaining at 1 h (pepsin): 24%
remaining at 2 h (pepsin): 9%
remaining at 4 h (pepsin): 0%
remaining at 8 h (pepsin): 0%
remaining at 12 h (pepsin): 0%
Papp ([5]; Pe Avg): 2.75 ×10⁻⁶ cm/s
Structure (SMILES): CC(C)C[C@@H]1NC(=O)[C@@H](CC(C)C)N(C)C(=O)[C@H](CC(C)C)NC(=O)[C@H](Cc2ccc(O)cc2)NC(=O)[C@H]2CCCN2C(=O)[C@H](CC(C)C)NC1=O [10g] (cyclo(LL[dP]YL[dNMeL]))

Half lives (human liver microsomes): 12.6
logD (physchem): 1.11
fraction unbound (in vitro [1]): 0.38
half-life (in vitro [2]): 1.83 h
remaining at 10 min (in vitro [2]): 90%
remaining at 0.5 h (in vitro [2]): 81%
remaining at 1 h (in vitro [2]): 68%
remaining at 2 h (in vitro [2]): 46%
remaining at 4 h (in vitro [2]): 32%
remaining at 8 h (in vitro [2]): 6%
remaining at 12 h (in vitro [2]): 3%
microsomal CLint (in vitro [3]): 113 µL/min/mg
remaining at 2 min (in vitro [3]): 93%
remaining at 10 min (in vitro [3]): 54%
remaining at 20 min (in vitro [3]): 53%
remaining at 0.5 h (in vitro [3]): 19%
remaining at 0.75 h (in vitro [3]): 12%
remaining at 1 h (in vitro [3]): 2.73%
half-life (in vitro [4]): 19 h
remaining at 2 h (in vitro [4]): 92%
remaining at 4 h (in vitro [4]): 83%
remaining at 8 h (in vitro [4]): 74%
remaining at 16 h (in vitro [4]): 58%
remaining at 24 h (in vitro [4]): 38%
remaining at 48 h (in vitro [4]): 26%
remaining at 72 h (in vitro [4]): 4%
half-life (pepsin): 0.292 h
remaining at 2 min (pepsin): 86%
remaining at 10 min (pepsin): 58%
remaining at 20 min (pepsin): 47%
remaining at 0.5 h (pepsin): 30%
remaining at 1 h (pepsin): 17%
remaining at 2 h (pepsin): 11%
remaining at 4 h (pepsin): 5%
remaining at 8 h (pepsin): 2.5%
remaining at 12 h (pepsin): 1%
Papp ([5]; Pe Avg): 3.2 ×10⁻⁶ cm/s
Structure (SMILES): CC(C)C[C@@H]1NC(=O)[C@H](Cc2ccc(O)cc2)NC(=O)[C@H]2CCCN2C(=O)[C@H](CC(C)C)N(C)C(=O)[C@H](CC(C)C)NC(=O)[C@@H](CC(C)C)NC1=O [10i] (cyclo(L[NMeL][dP]YL[dL]))

Half lives (human liver microsomes): 28.7
logD (physchem): 0.98
fraction unbound (in vitro [1]): 0.21
half-life (in vitro [2]): 0.583 h
remaining at 10 min (in vitro [2]): 70%
remaining at 0.5 h (in vitro [2]): 58%
remaining at 1 h (in vitro [2]): 38%
remaining at 2 h (in vitro [2]): 21%
remaining at 4 h (in vitro [2]): 4.54%
remaining at 8 h (in vitro [2]): 0.525%
remaining at 12 h (in vitro [2]): 0%
microsomal CLint (in vitro [3]): 49 µL/min/mg
remaining at 2 min (in vitro [3]): 91%
remaining at 10 min (in vitro [3]): 77%
remaining at 20 min (in vitro [3]): 73%
remaining at 0.5 h (in vitro [3]): 46%
remaining at 0.75 h (in vitro [3]): 35%
remaining at 1 h (in vitro [3]): 9%
half-life (in vitro [4]): 11 h
remaining at 2 h (in vitro [4]): 75%
remaining at 4 h (in vitro [4]): 61%
remaining at 8 h (in vitro [4]): 56%
remaining at 16 h (in vitro [4]): 38%
remaining at 24 h (in vitro [4]): 25%
remaining at 48 h (in vitro [4]): 9%
remaining at 72 h (in vitro [4]): 4%
half-life (pepsin): 0.367 h
remaining at 2 min (pepsin): 86%
remaining at 10 min (pepsin): 78%
remaining at 20 min (pepsin): 59%
remaining at 0.5 h (pepsin): 32%
remaining at 1 h (pepsin): 10%
remaining at 2 h (pepsin): 1%
remaining at 4 h (pepsin): 0%
remaining at 8 h (pepsin): 0%
remaining at 12 h (pepsin): 0%
Papp ([5]; Pe Avg): 4.59 ×10⁻⁶ cm/s
Structure (SMILES): CC(C)C[C@@H]1NC(=O)[C@@H](CC(C)C)NC(=O)[C@H](CC(C)C)NC(=O)[C@H](Cc2ccc(O)cc2)N(C)C(=O)[C@H]2CCCN2C(=O)[C@H](CC(C)C)NC1=O [10j] (cyclo(LL[dP][NMeY]L[dL]))

logD (physchem): -0.93
fraction unbound (in vitro [1]): 0.05
half-life (in vitro [4]): 16 h
Papp ([5]; Pe): 1.51 ×10⁻⁶ cm/s
logD heptane ethylene glycol [7]: -0.91
Structure (SMILES): C[C@@H](O)[C@@H]1NC(=O)[C@H](CCCCN)NC(=O)[C@@H](Cc2c[nH]c3ccccc23)NC(=S)[C@H](Cc2ccccc2)NC(=O)[C@@H]2CCCN2C(=O)[C@H](Cc2ccccc2)NC1=O [13f]
